A short description of this series: Measurement of logP values by HPLC on reversed phase columns (EEC directive 79/831 Annex V.A8). The format is physicochemical. The settings on record: for chromatographic logP: reversed phase HPLC column.
[1] abbreviates: method [b]: LC-MS at pH 2.7 with 0.1% formic acid in water and acetonitrile, linear gradient 10% to 95% acetonitrile.
Setting [2] is: method [a]: pH 2.3 with 0.1% phosphoric acid and acetonitrile as eluent.

Experimental findings from patent US8580799B2 (priority 2008, dated 2013) are described below.

Where two headings read alike, the source gives them in different places.

As to `Cc1nsnc1C(=NOCc1cccc(NC(=O)OC(C)(C)C)n1)c1ccccc1` [Example 30, tert-butyl {6-[({[(4-methyl-1,2,5-thiadiazol-3-yl)(phenyl)methylene]-amino}oxy)methyl]pyridin-2-yl}carbamate], the chromatographic logP reads like this: (HCOOH (formic acid) method, read-out: log P(HCOOH)) 4.97; (method [b]: LC-MS at pH 2.7 with 0.1% formic acid in water and acetonitrile, linear gradient 10% to 95% acetonitrile, read-out: logp) 4.97.

As for `CCCCCCNc1cccc(CON=C(c2ccccc2)c2nsnc2C(F)(F)F)n1` [Example 39], the logp under setting [1] is 3.44^[b].

Turning to `CCCCC#Cc1nc(CON=C(c2cccc(F)c2)c2nnsc2C)cs1` [Example 7], under setting [1], the logp is 5.25^[b].

Take `CCCCC#Cc1nc(CON=C(c2ccccc2)c2nsnc2C(F)(F)F)cs1` [Example 40]: under setting [1], the logp is 6.37^[b].

Regarding `O=C(Cc1ccccc1)Nc1ccnc(CON=C(c2ccccc2)c2nsnc2C(F)(F)F)n1` [Example 15], the logp under setting [2] is 4.09^[a].

For `O=C(Nc1ccnc(CON=C(c2ccccc2)c2nsnc2C(F)(F)F)n1)c1ccccc1` [Example 11], the logp under setting [2] is 4.14^[a].

For the compound `CCCCCOC(=O)Nc1cccc(CON=C(c2ccccc2)c2nsnc2C)n1` [Example 20], under setting [1], the logp is 5.5^[b].

As for `CCCCC#Cc1nc(CON=C(c2ccccc2)c2nsnc2C)cs1` [Example 41], under setting [1], the logp is 5.72^[b].
